Laboratory results from publication doi:10.1101/2024.03.08.583891v2 (biorxiv, 2024).
Read-outs that look alike come from different tables or passages of the source.

Assays:
Test in all cases: tissue or organelle
Settings in all cases: read-out: Intrinsec activity %
[1] = molecular target: T1, NMDA receptor histamine site (NMDA(HA)R), native NMDAR of rat hippocampal synaptosomes (Rattus norvegicus, UniProt P35439+Q00960)
[2] = molecular target: T1, NMDA receptor histamine site (NMDA(HA)R), native NMDAR of rat hippocampal synaptosomes; remark: listed apart in the source
[3] = molecular target: T1, NMDA receptor histamine site (NMDA(HA)R), native NMDAR of rat hippocampal synaptosomes; remark: listed apart in the source
[4] = molecular target: T1, NMDA receptor histamine site (NMDA(HA)R), native NMDAR of rat hippocampal synaptosomes; remark: listed apart in the source
[5] = molecular target: T1, NMDA receptor histamine site (NMDA(HA)R), native NMDAR of rat hippocampal synaptosomes; remark: listed apart in the source
[6] = molecular target: T1, NMDA receptor histamine site (NMDA(HA)R), native NMDAR of rat hippocampal synaptosomes; remark: listed apart in the source
[7] = molecular target: T1, NMDA receptor histamine site (NMDA(HA)R), native NMDAR of rat hippocampal synaptosomes; remark: listed apart in the source
[8] = molecular target: T1, NMDA receptor histamine site (NMDA(HA)R), native NMDAR of rat hippocampal synaptosomes; remark: listed apart in the source

T1 sequence (Q00960 27-1482, other chains not shown): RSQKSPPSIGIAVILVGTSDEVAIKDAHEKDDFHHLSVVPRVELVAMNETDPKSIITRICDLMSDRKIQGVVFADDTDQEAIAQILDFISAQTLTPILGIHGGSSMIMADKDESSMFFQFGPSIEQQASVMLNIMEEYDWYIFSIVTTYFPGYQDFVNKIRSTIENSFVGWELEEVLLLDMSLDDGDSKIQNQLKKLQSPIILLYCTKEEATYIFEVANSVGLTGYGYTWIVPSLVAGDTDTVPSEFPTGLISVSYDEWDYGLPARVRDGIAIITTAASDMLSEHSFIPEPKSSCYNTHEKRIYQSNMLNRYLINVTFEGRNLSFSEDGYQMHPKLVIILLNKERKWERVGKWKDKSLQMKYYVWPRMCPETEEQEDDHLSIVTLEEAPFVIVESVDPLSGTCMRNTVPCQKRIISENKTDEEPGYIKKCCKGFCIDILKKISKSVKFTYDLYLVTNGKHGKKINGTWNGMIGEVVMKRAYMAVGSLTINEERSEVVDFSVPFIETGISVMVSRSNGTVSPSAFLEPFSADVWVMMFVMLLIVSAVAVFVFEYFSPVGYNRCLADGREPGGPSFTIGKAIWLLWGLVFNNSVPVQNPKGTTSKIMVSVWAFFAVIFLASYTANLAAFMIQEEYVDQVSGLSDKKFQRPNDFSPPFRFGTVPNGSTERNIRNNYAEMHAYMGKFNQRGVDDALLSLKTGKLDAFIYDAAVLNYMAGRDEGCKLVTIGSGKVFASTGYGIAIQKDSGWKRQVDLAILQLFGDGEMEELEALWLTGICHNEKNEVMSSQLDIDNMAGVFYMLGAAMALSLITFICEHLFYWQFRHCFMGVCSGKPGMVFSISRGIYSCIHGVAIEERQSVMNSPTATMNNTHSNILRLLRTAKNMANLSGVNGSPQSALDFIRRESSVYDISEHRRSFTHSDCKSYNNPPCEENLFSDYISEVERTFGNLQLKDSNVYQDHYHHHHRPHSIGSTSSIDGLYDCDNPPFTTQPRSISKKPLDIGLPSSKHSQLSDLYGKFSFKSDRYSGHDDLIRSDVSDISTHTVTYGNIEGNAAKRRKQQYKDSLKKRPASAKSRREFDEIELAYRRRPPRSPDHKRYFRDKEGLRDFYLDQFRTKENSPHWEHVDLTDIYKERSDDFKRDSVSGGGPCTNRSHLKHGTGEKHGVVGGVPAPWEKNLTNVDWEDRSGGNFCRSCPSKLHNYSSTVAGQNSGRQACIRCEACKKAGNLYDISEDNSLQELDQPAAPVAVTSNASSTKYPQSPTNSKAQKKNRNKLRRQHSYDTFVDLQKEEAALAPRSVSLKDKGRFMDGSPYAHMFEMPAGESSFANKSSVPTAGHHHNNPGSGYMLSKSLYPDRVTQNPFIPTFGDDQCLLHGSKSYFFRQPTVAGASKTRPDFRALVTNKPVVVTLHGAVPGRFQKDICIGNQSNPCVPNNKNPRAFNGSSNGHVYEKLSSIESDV

## Nc1nc(C2CCC(N)CC2)cs1 (stereo not shown) [Fub 206]
[1]
  Emax: 40%

## Nc1nc2ccc(CCNCCc3ccccc3)cc2s1 [Fub 281]
[2]
  Emax: 30%

## CCCCCCCCNCCc1ccc2nc(N)sc2c1 [Fub 304]
[3]
  Emax: 33%

## CCc1nc(N)sc1CCN [Fub 240]
[4]
  Emax: 82%

## CCCCCCCNCCc1ccc2nc(N)sc2c1 [Fub 303]
[3]
  Emax: 33%

## Cc1sc(N)nc1CCCCN [Fub 302]
[5]
  Emax: 29%

## Cc1sc(N)nc1/C=C/CN [Fub 242]
[1]
  Emax: 75%

## CCCCNCCc1ccc2nc(N)sc2c1 [Fub 286]
[3]
  Emax: 31%

## COc1cc2c(cc1OC)CC(NCC(O)c1ccc(F)cc1)CC2 (stereo not shown) [ST 593]
[6]
  Emax: 25%

## CC1(C)C(C(=O)c2cn(Cc3ccc(F)cc3)c3ccccc23)C1(C)C [Fub 144]
[1]
  Emax: 35%

## NCCc1ccc2nc(N)sc2c1 [Fub 247]
[7]
  Emax: 48%

## Clc1nc2ccc(CCNCCCCc3ccccc3)cc2s1 [ST 575]
[3]
  Emax: 40%

## Nc1nc2ccc(CCNCCCCCCc3ccccc3)cc2s1 [Fub 307]
[2]
  Emax: 33%

## NCCCCCCc1cnc(N)s1 [Fub 296]
[1]
  Emax: 41%

## Nc1nc(C2CCCC(N)C2)cs1 (stereo not shown) [Fub 235]
[1]
  Emax: 38%

## CCC(C)(C)NCCc1ccc2nc(N)sc2c1 [Fub 290]
[3]
  Emax: 27%

## NCCCCCc1cnc(N)s1 [Fub 295]
[1]
  Emax: 41%

## Cc1nc(N)sc1CCCCN [Fub 217]
[4]
  Emax: 52%

## CCN(CCc1ccccc1)C1CCc2cc(OC)c(OC)cc2C1 (stereo not shown) [ST 577]
[3]
  Emax: 25%

## CCCCCNCCc1ccc2nc(N)sc2c1 [Fub 287]
[3]
  Emax: 30%

## Nc1nc2ccc(CCNCc3ccccc3)cc2s1 [Fub 299]
[2]
  Emax: 36%

## CCNCCc1ccc2nc(N)sc2c1 [Fub 275]
[3]
  Emax: 15%

## CCCNCCc1ccc2nc(N)sc2c1 [Fub 276]
[3]
  Emax: 15%

## CCCCCCCCCNCCc1ccc2nc(N)sc2c1 [Fub 305]
[3]
  Emax: 30%

## Nc1nc2ccc(CCNCCCc3ccccc3)cc2s1 [Fub 292]
[2]
  Emax: 32%

## Nc1nc2ccc(CCNCCCCc3ccccc3)cc2s1 [FUBn293]
[8]
  Emax: 39%

## NCc1ccc2nc(N)sc2c1 [Fub 223]
[7]
  Emax: 34%

## Cc1ccc(CCNCCc2ccc3nc(N)sc3c2)cc1 [Fub 297]
[2]
  Emax: 32%

## Nc1nc(C2CCC(N)CC2)c[se]1 (stereo not shown) [Fub 210]
[1]
  Emax: 33%

## COc1cc2c(cc1OC)CC(NCC(O)c1ccc(C)cc1)CC2 (stereo not shown) [ST 563]
[3]
  Emax: 50%

## Cc1sc(N)nc1CCCN [Fub 241]
[5]
  Emax: 53%

## NCCCCCc1csc(N)n1 [Fub 216]
[5]
  Emax: 20%

## CCN(CC(O)c1ccc(C(F)(F)F)cc1)C1CCc2cc(OC)c(OC)cc2C1 (stereo not shown) [ST 592]
[6]
  Emax: 30%

## CCCC(C)(C)NCCc1ccc2nc(N)sc2c1 [Fub 291]
[3]
  Emax: 32%

## Nc1nc2ccc(CCNCCCCCc3ccccc3)cc2s1 [Fub 306]
[2]
  Emax: 33%

## Sc1nc2ccc(SCCNCCCCc3ccccc3)cc2s1 [ST 576]
[3]
  Emax: 38%

## CCCCCCNCCc1ccc2nc(N)sc2c1 [Fub 288]
[3]
  Emax: 35%

## NCCCCCCc1csc(N)n1 [Fub 239]
[5]
  Emax: 23%

## CCCNC1CCc2ncsc2C1 (stereo not shown) [ST 581]
[6]
  Emax: 50%

## Nc1nc2ccc(CCNCC3CCCCC3)cc2s1 [Fub 266]
[2]
  Emax: 48%

## Cc1nc(N)sc1CCCCCN [Fub 238]
[4]
  Emax: 50%

## CCc1nc(N)sc1CCCN [Fub 301]
[4]
  Emax: 61%

## NCCCCc1cnc(N)s1 [Fub 218]
[1]
  Emax: 81%

## COc1cc2c(cc1OC)CC(NCC(O)c1ccc(C(F)(F)F)cc1)CC2 (stereo not shown) [ST 590]
[6]
  Emax: 30%

## CC(C)(C)NCCc1ccc2nc(N)sc2c1 [Fub 289]
[3]
  Emax: 23%

## COc1ccc(CCNCCc2ccc3nc(N)sc3c2)cc1 [Fub 298]
[2]
  Emax: 19%

## CCc1nc(N)sc1CCCCN [Fub 309]
[4]
  Emax: 40%

## NCCc1ccc2nc(N)[se]c2c1 [Fub 300]
[7]
  Emax: 45%

## COc1ccc(C(O)CNC2CCc3cc(OC)c(OC)cc3C2)cc1 (stereo not shown) [ST 578]
[3]
  Emax: 30%
